Reference: ChEMBL document CHEMBL4334529, “Polypropionate Derivatives with Mycobacterium tuberculosis Protein Tyrosine Phosphatase B Inhibitory Activities from the Deep-Sea-Derived Fungus Aspergillus fischeri FS452” (J Nat Prod, 2019)
Activity calls are given as the source filed them. The calls are words filed in the database; no cut-off is given here.

Experiments:
[1] = target: T1, Phosphotyrosine protein phosphatase (Mycobacterium tuberculosis, UniProt A0A045ISB3); assay: Non-competitive inhibition of Mycobacterium tuberculosis H37Rv ptpB expressed in Escherichia coli BL21 (DH3) cells using p-nitrophenyl phosphate as substrate incubated for 30 mins by Lineweaver-Burk blot analysis
T1 sequence (A0A045ISB3 whole entry): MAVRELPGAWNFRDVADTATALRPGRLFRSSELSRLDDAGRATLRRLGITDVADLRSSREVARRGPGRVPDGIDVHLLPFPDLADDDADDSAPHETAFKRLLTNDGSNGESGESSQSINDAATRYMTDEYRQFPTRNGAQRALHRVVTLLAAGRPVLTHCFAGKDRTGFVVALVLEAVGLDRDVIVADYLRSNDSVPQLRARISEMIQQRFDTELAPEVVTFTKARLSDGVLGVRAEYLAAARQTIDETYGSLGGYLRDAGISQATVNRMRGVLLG

[2] = target: T1, Phosphotyrosine protein phosphatase; assay: Inhibition of Mycobacterium tuberculosis H37Rv ptpB expressed in Escherichia coli BL21 (DH3) cells using 6,8-difluoromethylumbelliferyl phosphate as substrate incubated for 30 mins by fluorescence based assay
Candida albicans = assay: Antifungal activity against Candida albicans; type: functional, organism-based

Structure (SMILES) | Ki [1] [µM] | IC50 ([2]; read-out: IC50) [µM] | Activity (Candida albicans) | IC50 [2] [µM]
CC[C@H](C)C[C@H](C)C[C@@H]1CO[C@@H](/C(C)=C/C(=C\C=C\CC(=O)O)C(=O)O)[C@H](C)C1 | 8.9 | 5.1 | inactive | –
CC[C@H](C)C[C@H](C)C[C@@H]1CO[C@@H](\C(C)=C/C(=C/C=C/CC(=O)O)C(=O)O)[C@H](C)C1 | 7 | 12 | inactive | –
CC[C@H](C)C[C@H](C)C[C@H](CO)C[C@@H](C)/C=C(C)/C=C(C)\C=C\C=C\C(=O)N1CCCC(O)C1=O (some centres not stated) | – | > 50 | inactive | –
CC1(C)CC[C@]2(C(=O)O)CC[C@]3(C)C(=CC[C@@H]4[C@@]5(C)CC[C@H](O)C(C)(C)[C@@H]5CC[C@]43C)[C@@H]2C1 [OLEANOLIC_ACID] | – | – | – | 14
C/C(=C\[C@H](C)C[C@@H](C)C[C@@H](C)C[C@@H](C)[C@@H](C)O)C(=O)NCCC(=O)O | – | > 50 | inactive | –
CC[C@H](COC(C)=O)C[C@H](C)C[C@H](C)C[C@@H](C)/C=C(C)/C=C(/C=C/C=C/C(=O)O)C(=O)O | 5.2 | 4 | inactive | –
CC[C@H](C)C[C@H](C)C[C@H](CO)C[C@@H](C)/C=C(C)/C=C(C)/C=C/C=C/C(=O)N1CCCC(O)C1=O (some centres not stated) | 16 | 11 | inactive | –
